One series deals with T1, Human TRPA1 (Homo sapiens, UniProt O75762).
T1 construct: expressed in transfected cells; host or cells: CHO cells (grown with 400 μg/ml G-418)
The experiment in a line: 45Calcium uptake assay: inhibition of AITC induced cellular uptake of radioactive calcium. Format: cell-based. Conditions: human TRPA1 expressing CHO cells, AITC 30 μM; for inhibition at 1 µM: read-out: Percentage inhibition at 1.0 μM; for inhibition at 10 µM: read-out: Percentage inhibition at 10.0 μM. On the procedure:
The illustrative examples of the present invention were screened for TRPA1 activity according to a modified procedure described in (a) Tóth, A. et al. Life Sciences, 2003, 73, 487-498. ([…]. et al, Proc. Natl. Acad. Sci. U.S.A., 2007, 104, 13525-13530. The screening of the compounds can be carried out by other methods and procedures known to persons skilled in the art. Screening for TRPA1 Antagonist Using the ^45Calcium Uptake Assay: The inhibition of TRPA1 receptor activation was measured as inhibition of allyl isothiocyanate (AITC) induced cellular uptake of radioactive calcium. Test compounds were dissolved in 100% DMSO to prepare 10 mM stock and then diluted using plain medium with 0.1% BSA and 1.8 mM CaCl2 to get the desired concentration. The final concentration of DMSO in the reaction was 0.5% (v/v). Human TRPA1 expressing CHO cells were grown in F-12 DMEM medium with 10% FBS, 1% penicillin-streptomycin solution, and 400 μg/ml of G-418. Cells were seeded 24 h prior to the assay in 96 well plates so as to get 50,000 cells per well on the day of experiment. Cells were treated with the test compounds for 10 minutes followed by the addition of AITC at a final concentration of 30 μM and 5 μCi/ml^45Ca^+2 for 3 minutes. Cells were washed and lysed using a buffer containing 1% Triton X-100, 0.1% deoxycholate and 0.1% SDS. Radioactivity in the lysate was measured in a Packard TopCount after addition of liquid scintillant. (Toth et al, Life Sciences (2003) 73, 487-498; McNamara C R et al, Proceedings of the National Academy of Sciences, (2007) 104, 13525-13530). Concentration response curves were plotted as a % of maximal response obtained in the absence of test antagonist. IC50 values can be calculated from concentration response curve by nonlinear regression analysis using GraphPad PRISM software.

The nature of series [1]: Determination of solubility by shake flask method (water). Format: physicochemical. Conditions: for solubility at 15 min: thermodynamic from solid, water, 37° C., shake flask. On the procedure: About 1 mg of test substance was taken in test tube and water was added in the increment of 1 ml with shaking after addition of media (water). Solubility was observed visually also. After completion of addition of 10 ml volume of media (water), test tube containing sample solution were put on a mechanical shaker set at 37° C. and 200 rpm for shaking up to 15 minute. After shaking, content of flask was filtered through 0.45μ filter. This filtered solution is analyzed using HPLC method for quantification. A sample solution of 1 mg in 10 ml of DMSO is used as reference standard for quantifying dissolved test substance in media. Solubility is expressed as mcg/ml.
Aqueous solubility of ‘P’ substituted thiazole compounds and the parent thiazole compounds were determined using the above described procedure and the results are given Table 3.

Series [2] is described as follows: Rat pharmacokinetic (PK) study, oral suspension. It is filed as in vivo, male rats (Sprague Dawley). Conditions: for pharmacokinetic properties (Cmax and AUC) compared to the parent thiazole acetamide: compared with the corresponding parent compound of formula (1); for Cmax / AUC(0-t): rat, plasma, parent thiazole compound of the example, male Sprague Dawley rats, oral suspension; for AUC(0-t): read-out: AUC0-24. On the procedure:
PK values were obtained in male rats (strain: Sprague Dawley) orally dosed with the compounds of the present invention as suspension. Accurately weighed quantity of compound of present invention (corrected for purity and salt factor) was transferred into a clean and dry mortar. To this mortar was added 2.5 μL/mL Tween 80 and triturated until the compound gets properly wet. To this, 0.5% (w/v) methyl cellulose suspension was added in geometric proportions and triturated thoroughly to form a uniform suspension.
Animals were provided with food and water ad libitum through out the study period. Animals were dosed orally with the compounds using a gavage needle at 10 mL/kg body weight. Blood samples (250 μl approx.) were collected from male Sprague Dawley retro orbital sinus using rat capillary tubes into 0.6 mL eppendorf tubes with tripotassium ethylenediaminetetraacetic acid (K3 EDTA) (25 μL) as anticoagulant. Samples were collected at 0.5, 1.0, 2.0, 4.0, 6.0, 8.0, 12.0 and 24.0 hr post dosing for compounds. Then samples were centrifuged immediately at 1000 g for 10 min. at 4° C. Plasma samples were separated and stored at −70° C. till analysis. Samples were processed and analyzed using LCMS/MS. Pharmacokinetic parameters were calculated using Winonlin software. Table 4 provides the pK values (Cmax, AUC) obtained in these studies.

Where [3] appears, read: ‘P’ substituted thiazole compound.
Where [4] appears, read: parent thiazole compound of the example.

The text below walks through data of US9073955B2, “2-amino-4-arylthiazole compounds as TRPA1 antagonists” (Glenmark Pharmaceuticals, S.A., priority 2010, dated 2015).

Where two headings read alike, the source gives them in different places.

T1 sequence (O75762 whole entry): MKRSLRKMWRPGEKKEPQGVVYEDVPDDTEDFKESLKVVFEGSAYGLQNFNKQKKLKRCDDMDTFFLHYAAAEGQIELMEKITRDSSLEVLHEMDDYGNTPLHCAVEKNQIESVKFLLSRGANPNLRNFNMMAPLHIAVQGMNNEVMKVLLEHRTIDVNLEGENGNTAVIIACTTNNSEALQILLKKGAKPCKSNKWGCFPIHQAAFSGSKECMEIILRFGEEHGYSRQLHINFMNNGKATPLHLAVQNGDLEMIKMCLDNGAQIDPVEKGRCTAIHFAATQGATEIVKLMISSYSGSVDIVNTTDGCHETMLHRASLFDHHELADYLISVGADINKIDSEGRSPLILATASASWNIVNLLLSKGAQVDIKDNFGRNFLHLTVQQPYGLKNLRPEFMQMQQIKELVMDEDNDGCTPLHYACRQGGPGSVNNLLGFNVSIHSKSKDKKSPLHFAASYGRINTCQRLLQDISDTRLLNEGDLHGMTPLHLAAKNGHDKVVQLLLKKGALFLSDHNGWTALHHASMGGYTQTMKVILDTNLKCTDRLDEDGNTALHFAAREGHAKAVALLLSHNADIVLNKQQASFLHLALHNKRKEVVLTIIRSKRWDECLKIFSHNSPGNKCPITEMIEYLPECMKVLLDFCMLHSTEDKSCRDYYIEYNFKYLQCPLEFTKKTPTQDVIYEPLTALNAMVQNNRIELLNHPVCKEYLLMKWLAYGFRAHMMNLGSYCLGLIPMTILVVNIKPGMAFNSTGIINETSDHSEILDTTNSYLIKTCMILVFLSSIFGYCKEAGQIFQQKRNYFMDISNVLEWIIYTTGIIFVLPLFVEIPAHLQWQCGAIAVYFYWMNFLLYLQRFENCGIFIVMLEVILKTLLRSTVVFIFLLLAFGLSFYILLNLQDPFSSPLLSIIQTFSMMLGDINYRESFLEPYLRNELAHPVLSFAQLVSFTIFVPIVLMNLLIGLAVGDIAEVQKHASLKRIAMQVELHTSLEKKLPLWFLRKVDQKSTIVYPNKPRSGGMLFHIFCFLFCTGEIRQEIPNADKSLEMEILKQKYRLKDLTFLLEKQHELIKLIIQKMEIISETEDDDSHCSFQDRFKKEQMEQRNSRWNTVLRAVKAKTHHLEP

Regarding `Cn1c(=O)c2c(CC(=O)/N=c3\scc(-c4ccc(C(F)(F)F)c(F)c4)n3COP(=O)(O)O)csc2n(C)c1=O` [Example 11, [2-{[(1,3-Dimethyl-2,4-dioxo-1,2,3,4-tetrahydrothieno[2,3-d]pyrimidin-5-yl)acetyl]imino}-4-[3-fluoro-4-(trifluoromethyl)phenyl]-1,3-thiazol-3 (2H)-yl]methyl dihydrogen phosphate], at Human TRPA1, the inhibition at 1 µM was found to be 53.4% and the IC50 was > 500 nM. Also, the inhibition at 10 µM on Human TRPA1 (10.0 μM) was determined as 99.8%. The “aqueous solubility over the parent thiazole acetamide” value in series [1] (compared with the corresponding parent compound of formula (1)) was “better aqueous solubility”. Moreover, the “pharmacokinetic properties (Cmax and AUC) compared to the parent thiazole acetamide” value in series [2] is listed as “better pharmacokinetic properties”.

Consider `Cc1oc2c(c1CC(=O)/N=c1\scc(-c3ccc(OC(F)(F)F)c(Cl)c3)n1COP(=O)(O)O)c(=O)n(C)c(=O)n2C` [Example 25, [4-[3-Chloro-4-(trifluoromethoxy)phenyl]-2-{[(1,3,6-trimethyl-2,4-dioxo-1,2,3,4-tetrahydrofuro[2,3-d]pyrimidin-5-yl)acetyl]imino}-1,3-thiazol-3 (2H)-yl]methyl dihydrogen phosphate], for which, at Human TRPA1, the “Percentage inhibition at 1.0 μM” value is 46.47% and the half-inhibitory concentration (IC50) is > 500 nM. For the same compound, the inhibition at 10 µM at Human TRPA1 (CHO, 10.0 μM) was determined as 97.8%. For the same compound, the solubility at 15 min in series [1] (setting [3]) was > 10 µg/mL. In addition, the “pharmacokinetic properties (Cmax and AUC) compared to the parent thiazole acetamide” value in series [2] is listed as “better pharmacokinetic properties”.

Take `Cc1oc2c(c1CC(=O)/N=c1\scc(-c3ccc(OC(F)(F)F)c(Cl)c3)n1COP(=O)([O-])[O-])c(=O)n(C)c(=O)n2C.[Na+].[Na+]` [Example 26, Disodium[4-[3-chloro-4-(trifluoromethoxy)phenyl]-2-{[(1,3,6-trimethyl-2,4-dioxo-1,2,3,4-tetrahydrofuro[2,3-d]pyrimidin-5-yl)acetyl]imino}-1,3-thiazol-3 (2H)-yl]methyl phosphate]: the “Percentage inhibition at 1.0 μM” value at Human TRPA1 was determined as 12.64%. Besides, the “Percentage inhibition at 10.0 μM” value at Human TRPA1 (10.0 μM) is 96.25%. For the same compound, the solubility at 15 min in series [1] (setting [3]) is > 75 µg/mL.

Consider `Cn1nc2c(c1CC(=O)/N=c1\scc(-c3ccc(F)c(C(F)(F)F)c3F)n1COP(=O)(O)O)c(=O)n(C)c(=O)n2C` [Example 28, 4-(2,4-Difluoro-3-(trifluoromethyl)phenyl)-2-((2-(2,5,7-trimethyl-4,6-dioxo-4,5,6,7-tetrahydro-2H-pyrazolo[3,4-d]pyrimidin-3-yl)acetyl)imino)thiazol-3 (2H)-yl)methyl dihydrogen phosphate], for which the inhibition at 1 µM at Human TRPA1 (CHO) stood at 29.5%. For the same compound, on Human TRPA1 (CHO, 10.0 μM), the inhibition at 10 µM came to 92.4%. The IC50 at Human TRPA1 is > 500 nM. Moreover, the solubility at 15 min in series [1] (setting [3]) is > 30 µg/mL. The “pharmacokinetic properties (Cmax and AUC) compared to the parent thiazole acetamide” value in series [2] is on record as “better pharmacokinetic properties”.

Consider `Cn1nc2c(c1CC(=O)N=c1scc(-c3ccc(F)c(C(F)(F)F)c3F)n1COP(=O)([O-])[O-])c(=O)n(C)c(=O)n2C.[Na+].[Na+]` [Example 29, Disodium-(4-(2,4-difluoro-3-(trifluoromethyl)phenyl)-2-((2-(2,5,7-trimethyl-4,6-dioxo-4,5,6,7-tetrahydro-2H-pyrazolo[3,4-d]pyrimidin-3-yl)acetyl)imino)thiazol-3 (2H)-yl)methyl phosphate], for which the IC50 at Human TRPA1 is > 500 nM. In series [1] (setting [3]), the solubility at 15 min is > 110 µg/mL.

Regarding `Cn1c(=O)c2c(CC(=O)Nc3nc(-c4ccc(F)c(C(F)(F)F)c4F)cs3)csc2n(C)c1=O` [parent of Example 10, N-{4-[2,4-difluoro-3-(trifluoromethyl)phenyl]-1,3-thiazol-2-yl}-2-(1,3-dimethyl-2,4-dioxo-1,2,3,4-tetrahydrothieno[2,3-d]pyrimidin-5-yl)acetamide, reference compound], the solubility at 15 min in series [1] (setting [4]) was < 0.2 µg/mL. For the same compound, in series [2], the Cmax was < 250 ng/mL and the AUC(0-t) was < 4000 ng·h/mL.

Turning to `Cc1oc2c(c1CC(=O)Nc1nc(-c3ccc(OC(F)(F)F)c(Cl)c3)cs1)c(=O)n(C)c(=O)n2C` [parent of Example 25, N-{4-[3-chloro-4-(trifluoromethoxy)phenyl]-1,3-thiazol-2-yl}-2-(1,3,6-trimethyl-2,4-dioxo-1,2,3,4-tetrahydrofuro[2,3-d]pyrimidin-5-yl)acetamide, reference compound], the solubility at 15 min in series [1] (setting [4]) is < 1.1 µg/mL. Besides, in series [2], the Cmax is < 250 ng/mL and the AUC(0-t) was < 3000 ng·h/mL.

Take `Cn1nc2c(c1CC(=O)Nc1nc(-c3ccc(F)c(C(F)(F)F)c3F)cs1)c(=O)n(C)c(=O)n2C` [parent of Example 28, N-(4-(2,4-difluoro-3-(trifluoromethyl)phenyl)thiazol-2-yl)-2-(2,5,7-trimethyl-4,6-dioxo-4,5,6,7-tetrahydro-2H-pyrazolo[3,4-d]pyrimidin-3-yl)acetamide, reference compound]: the solubility at 15 min in series [1] (setting [4]) was < 0.1 µg/mL. Besides, in series [2], the Cmax is < 500 ng/mL and the AUC(0-t) is < 7000 ng·h/mL.

In general, inhibition refers to the percentage by which the read-out fell short of the control. Broadly, the IC50 is the concentration needed to halve the response being measured. One may read the solubility as how much of the substance goes into solution per volume. One may read the Cmax as the highest concentration seen after dosing.
